Results as given in PubChem BioAssay AID1745844 (Carcinogenic Potency Database (CPDB), 2022).
The source made the active and inactive calls. The rule behind the calls is not given here.

Tested on: rodent lifetime carcinogenesis bioassay, tumor incidence TD50
Test: chronic cancer bioassays in animals – CPDB, compiled studies (AID 1745844)
[1] = mouse, strain B6C3F1, females, in feed, site: any site (literature study), lesion: several types, types named in the paper, dosed 103 weeks, study length 104 weeks
[2] = mouse, strain B6C3F1, females, in feed, site: lung, lesion: alveolar/bronchiolar adenoma + alveolar/bronchiolar carcinoma, dosed 103 weeks, study length 104 weeks
[3] = mouse, strain B6C3F1, males, in feed, site: liver, lesion: hepatocellular adenoma + hepatocellular carcinoma + neoplastic nodule, dosed 103 weeks, study length 104 weeks

FC(F)(Cl)Cl
TD50 (mouse, strain Swiss, females, inhaled, site: all sites, lesion: leukemia, dosed 78 weeks, study length 104 weeks): 4100 mg/kg/day (inactive)
TD50 (mouse, strain Swiss, females, inhaled, site: any site (literature study), lesion: malignant tumor, dosed 78 weeks, study length 104 weeks): 3320 mg/kg/day (inactive)
TD50 (mouse, strain Swiss, females, inhaled, site: any site (literature study), lesion: several types, types named in the paper, dosed 78 weeks, study length 104 weeks): 59000 mg/kg/day (inactive)
TD50 (mouse, strain Swiss, females, inhaled, site: lung, lesion: adenoma, dosed 78 weeks, study length 104 weeks): 91900 mg/kg/day (inactive)
TD50 (mouse, strain Swiss, males, inhaled, site: any site (literature study), lesion: malignant tumor, dosed 78 weeks, study length 104 weeks): 33100 mg/kg/day (inactive)
TD50 (mouse, strain Swiss, males, inhaled, site: any site (literature study), lesion: several types, types named in the paper, dosed 78 weeks, study length 104 weeks): 12100 mg/kg/day (inactive)
TD50 (mouse, strain Swiss, males, inhaled, site: lung, lesion: adenoma, dosed 78 weeks, study length 104 weeks): 41900 mg/kg/day (inactive)
carcinogen call (rat, strain Sprague-Dawley, females, inhaled, site: any site (literature study), lesion: malignant tumor, dosed 104 weeks, study length 104 weeks): negative (inactive)
carcinogen call (rat, strain Sprague-Dawley, females, inhaled, site: any site (literature study), lesion: several types, types named in the paper, dosed 104 weeks, study length 104 weeks): negative (inactive)
TD50 (rat, strain Sprague-Dawley, females, inhaled, site: liver, lesion: angiosarcoma, dosed 104 weeks, study length 104 weeks): 31300 mg/kg/day (inactive)
TD50 (rat, strain Sprague-Dawley, males, inhaled, site: adrenal gland, lesion: pheochromocytoma, dosed 104 weeks, study length 104 weeks): 1320 mg/kg/day (inactive)
carcinogen call (rat, strain Sprague-Dawley, males, inhaled, site: any site (literature study), lesion: malignant tumor, dosed 104 weeks, study length 104 weeks): negative (inactive)
TD50 (rat, strain Sprague-Dawley, males, inhaled, site: any site (literature study), lesion: several types, types named in the paper, dosed 104 weeks, study length 104 weeks): 555 mg/kg/day (inactive)
carcinogen call (rat, strain Sprague-Dawley, males, inhaled, site: liver, lesion: angiosarcoma, dosed 104 weeks, study length 104 weeks): negative (inactive)

Cc1noc(NS(=O)(=O)c2ccc(N)cc2)c1C
TD50 [1]: 8180 mg/kg/day
TD50 (mouse, strain B6C3F1, females, in feed, site: liver, lesion: hepatocellular adenoma + hepatocellular carcinoma + neoplastic nodule, dosed 103 weeks, study length 104 weeks): 2650 mg/kg/day
TD50 (mouse, strain B6C3F1, females, in feed, site: liver, lesion: hepatocellular carcinoma, dosed 103 weeks, study length 104 weeks): 2650 mg/kg/day (inactive)
TD50 [2]: 11900 mg/kg/day
carcinogen call (mouse, strain B6C3F1, males, in feed, site: any site (literature study), lesion: several types, types named in the paper, dosed 103 weeks, study length 104 weeks): negative (inactive)
TD50 [3]: 6910 mg/kg/day
TD50 (mouse, strain B6C3F1, males, in feed, site: lung, lesion: alveolar/bronchiolar adenoma + alveolar/bronchiolar carcinoma, dosed 103 weeks, study length 104 weeks): 49500 mg/kg/day
carcinogen call (rat, strain Fischer 344, females, in feed, site: any site (literature study), lesion: several types, types named in the paper, dosed 103 weeks, study length 106 weeks): negative (inactive)
TD50 (rat, strain Fischer 344, males, in feed, site: any site (literature study), lesion: several types, types named in the paper, dosed 103 weeks, study length 105 weeks): 135 mg/kg/day (inactive)
TD50 (rat, strain Fischer 344, males, in feed, site: liver, lesion: hepatocellular adenoma + hepatocellular carcinoma + neoplastic nodule, dosed 103 weeks, study length 105 weeks): 26300 mg/kg/day

CCN(CC)CCCNC(=O)Cn1ncc(-c2ccccc2)c1-c1ccccc1
carcinogen call (rat, strain Charles River CD (Sprague-Dawley), females, by gavage, site: liver, lesion: one or several types, types not named, dosed 52 weeks, study length 52 weeks): negative (inactive)
carcinogen call (rat, strain Charles River CD (Sprague-Dawley), males, by gavage, site: liver, lesion: one or several types, types not named, dosed 52 weeks, study length 52 weeks): negative (inactive)

COC(=O)[C@H]1[C@H]2C[C@@H]3c4[nH]c5cc(OC)ccc5c4CCN3C[C@H]2C[C@@H](OC(=O)c2cc(OC)c(OC)c(OC)c2)[C@@H]1OC
TD50 [1]: 6.42 mg/kg/day
TD50 [2]: 54.5 mg/kg/day
TD50 (mouse, strain B6C3F1, females, in feed, site: mammary gland, lesion: all tumors, dosed 103 weeks, study length 104 weeks): 3.58 mg/kg/day
TD50 [3]: 5.46 mg/kg/day
TD50 (mouse, strain B6C3F1, males, in feed, site: seminal vesicle, lesion: undifferentiated carcinoma, dosed 103 weeks, study length 104 weeks): 8.39 mg/kg/day
TD50 (mouse, strain C3H (MTV+), females, in feed, site: mammary gland, lesion: adenocarcinoma, dosed 104 weeks, study length 104 weeks): 0.0342 mg/kg/day
TD50 (rat, strain Fischer 344, females, in feed, site: any site (literature study), lesion: several types, types named in the paper, dosed 103 weeks, study length 104 weeks): 0.727 mg/kg/day (inactive)
TD50 (rat, strain Fischer 344, males, in feed, site: adrenal gland, lesion: pheochromocytoma + pheochromocytoma, malignant, dosed 103 weeks, study length 104 weeks): 0.306 mg/kg/day
TD50 (rat, strain Fischer 344, males, in feed, site: liver, lesion: hepatocellular adenoma + hepatocellular carcinoma + neoplastic nodule, dosed 103 weeks, study length 104 weeks): 6.77 mg/kg/day
carcinogen call (rat, strain Wistar, females, in feed, site: mammary gland, lesion: fibroadenoma, dosed 75 weeks, study length 75 weeks): negative (inactive)
carcinogen call (rat, strain Wistar, females, in feed, site: pituitary gland, lesion: several types, types named in the paper, dosed 75 weeks, study length 75 weeks): negative (inactive)
TD50 (rat, strain Wistar, males, in feed, site: pituitary gland, lesion: adenoma, dosed 75 weeks, study length 75 weeks): 38.3 mg/kg/day (inactive)

NC(=O)OCC(COC(N)=O)c1ccccc1
TD50 (mouse, strain Charles River CD1, females, in feed, site: liver, lesion: hepatocellular adenoma, dosed 92 weeks, study length 92 weeks): 10400 mg/kg/day
TD50 (mouse, strain Charles River CD1, females, in feed, site: liver, lesion: several types, types named in the paper, dosed 92 weeks, study length 92 weeks): 10200 mg/kg/day
TD50 (mouse, strain Charles River CD1, males, in feed, site: liver, lesion: hepatocellular adenoma, dosed 92 weeks, study length 92 weeks): 5770 mg/kg/day
TD50 (rat, strain Charles River CD (Sprague-Dawley), females, in feed, site: liver, lesion: hepatocellular adenoma, dosed 104 weeks, study length 104 weeks): 934 mg/kg/day
carcinogen call (rat, strain Charles River CD (Sprague-Dawley), females, in feed, site: liver, lesion: one or several types, types not named, dosed 52 weeks, study length 52 weeks): negative (inactive)
carcinogen call (rat, strain Charles River CD (Sprague-Dawley), males, in feed, site: liver, lesion: one or several types, types not named, dosed 52 weeks, study length 52 weeks): negative (inactive)
TD50 (rat, strain Charles River CD (Sprague-Dawley), males, in feed, site: liver, lesion: several types, types named in the paper, dosed 104 weeks, study length 104 weeks): 9780 mg/kg/day
TD50 (rat, strain Charles River CD (Sprague-Dawley), males, in feed, site: testis, lesion: interstitial-cell tumor, dosed 104 weeks, study length 104 weeks): 1310 mg/kg/day

O=NN1CC=CCC1
TD50 (rat, strain Fischer 344, females, in drinking water, site: esophagus, lesion: several types, types named in the paper, dosed 25 weeks, study length 128 weeks): 0.216 mg/kg/day
TD50 (rat, strain Fischer 344, females, in drinking water, site: esophagus, lesion: several types, types named in the paper, dosed 70 weeks, study length 100 weeks): 0.127 mg/kg/day
TD50 (rat, strain Fischer 344, females, in drinking water, site: esophagus, lesion: several types, types named in the paper, dosed 100 weeks, study length 128 weeks): 0.0669 mg/kg/day
TD50 (rat, strain Fischer 344, females, in drinking water, site: esophagus, lesion: squamous-cell carcinoma, dosed 100 weeks, study length 128 weeks): 0.43 mg/kg/day
TD50 (rat, strain Fischer 344, females, in drinking water, site: liver, lesion: hemangiosarcoma, dosed 25 weeks, study length 128 weeks): 4.04 mg/kg/day
carcinogen call (rat, strain Fischer 344, females, in drinking water, site: liver, lesion: hepatocellular carcinoma, dosed 25 weeks, study length 128 weeks): positive
TD50 (rat, strain Fischer 344, females, in drinking water, site: liver, lesion: hyperplastic nodule, dosed 70 weeks, study length 100 weeks): 2.15 mg/kg/day
TD50 (rat, strain Fischer 344, females, in drinking water, site: liver, lesion: hyperplastic nodule, dosed 100 weeks, study length 128 weeks): 0.284 mg/kg/day
carcinogen call (rat, strain Fischer 344, females, in drinking water, site: liver, lesion: several types, types named in the paper, dosed 25 weeks, study length 128 weeks): positive
TD50 (rat, strain Fischer 344, females, in drinking water, site: liver, lesion: several types, types named in the paper, dosed 100 weeks, study length 128 weeks): 0.132 mg/kg/day
carcinogen call (rat, strain Fischer 344, females, in drinking water, site: stomach, nonglandular, lesion: basal-cell papilloma, dosed 25 weeks, study length 128 weeks): positive
TD50 (rat, strain Fischer 344, females, in drinking water, site: stomach, nonglandular, lesion: basal-cell papilloma, dosed 100 weeks, study length 128 weeks): 0.0551 mg/kg/day
TD50 (rat, strain Fischer 344, females, in drinking water, site: upper gastrointestinal tract, lesion: carcinoma, dosed 25 weeks, study length 128 weeks): 0.271 mg/kg/day
TD50 (rat, strain Fischer 344, females, in drinking water, site: upper gastrointestinal tract, lesion: carcinoma, dosed 70 weeks, study length 100 weeks): 0.0966 mg/kg/day
TD50 (rat, strain Fischer 344, females, in drinking water, site: upper gastrointestinal tract, lesion: carcinoma, dosed 100 weeks, study length 128 weeks): 0.0856 mg/kg/day
TD50 (rat, strain Fischer 344, females, in drinking water, site: upper gastrointestinal tract, lesion: several types, types named in the paper, dosed 25 weeks, study length 128 weeks): 0.142 mg/kg/day
carcinogen call (rat, strain Fischer 344, females, in drinking water, site: upper gastrointestinal tract, lesion: several types, types named in the paper, dosed 70 weeks, study length 100 weeks): positive
TD50 (rat, strain Fischer 344, females, in drinking water, site: upper gastrointestinal tract, lesion: several types, types named in the paper, dosed 100 weeks, study length 128 weeks): 0.0374 mg/kg/day

COc1cc(OC)c2c3c(c(=O)oc2c1)C(=O)CC3
carcinogen call (rat, strain Fischer, males, by gavage, site: liver, lesion: one or several types, types not named, dosed 52 weeks, study length 87 weeks): negative (inactive)

C1CNCCN1
TD50 (rat, strain MRC, females, in drinking water, site: any site (literature study), lesion: several types, types named in the paper, dosed 75 weeks, study length 104 weeks): 11.2 mg/kg/day

CNC[C@H](O)c1ccc(O)c(O)c1
TD50 (mouse, strain B6C3F1, females, inhaled, site: liver, lesion: hepatocellular adenoma + hepatocellular carcinoma + neoplastic nodule, dosed 104 weeks, study length 107 weeks): 9.74 mg/kg/day
TD50 (mouse, strain B6C3F1, females, inhaled, site: uterus, lesion: endometrial stromal polyp + endometrial stromal sarcoma, dosed 104 weeks, study length 107 weeks): 6.86 mg/kg/day
TD50 (mouse, strain B6C3F1, females, inhaled, site: uterus, lesion: endometrial stromal polyp, dosed 104 weeks, study length 107 weeks): 8.52 mg/kg/day
TD50 (rat, strain Fischer 344, males, inhaled, site: any site (literature study), lesion: several types, types named in the paper, dosed 103 weeks, study length 105 weeks): 4.7 mg/kg/day
